Results from ChEMBL document CHEMBL6071163, “The multicomponent Passerini reaction as a means of accessing diversity in structure, activity and properties: Soft and hard vanilloid/cannabinoid modulators” (Eur J Med Chem, 2024).
pEC50, pIC50: −log10 of the molar value.

Key:
[1] = biological target: T1, Transient receptor potential cation channel subfamily V member 1 (Homo sapiens, UniProt Q8NER1); test: Agonist activity at recombinant human TRPV1 transfected in HEK293 cells assessed as increase in intracellular Ca2+ influx by Fluo-4 NW Ca2+ dye based microfluorometric calcium flux assay
T1 sequence (Q8NER1 whole entry): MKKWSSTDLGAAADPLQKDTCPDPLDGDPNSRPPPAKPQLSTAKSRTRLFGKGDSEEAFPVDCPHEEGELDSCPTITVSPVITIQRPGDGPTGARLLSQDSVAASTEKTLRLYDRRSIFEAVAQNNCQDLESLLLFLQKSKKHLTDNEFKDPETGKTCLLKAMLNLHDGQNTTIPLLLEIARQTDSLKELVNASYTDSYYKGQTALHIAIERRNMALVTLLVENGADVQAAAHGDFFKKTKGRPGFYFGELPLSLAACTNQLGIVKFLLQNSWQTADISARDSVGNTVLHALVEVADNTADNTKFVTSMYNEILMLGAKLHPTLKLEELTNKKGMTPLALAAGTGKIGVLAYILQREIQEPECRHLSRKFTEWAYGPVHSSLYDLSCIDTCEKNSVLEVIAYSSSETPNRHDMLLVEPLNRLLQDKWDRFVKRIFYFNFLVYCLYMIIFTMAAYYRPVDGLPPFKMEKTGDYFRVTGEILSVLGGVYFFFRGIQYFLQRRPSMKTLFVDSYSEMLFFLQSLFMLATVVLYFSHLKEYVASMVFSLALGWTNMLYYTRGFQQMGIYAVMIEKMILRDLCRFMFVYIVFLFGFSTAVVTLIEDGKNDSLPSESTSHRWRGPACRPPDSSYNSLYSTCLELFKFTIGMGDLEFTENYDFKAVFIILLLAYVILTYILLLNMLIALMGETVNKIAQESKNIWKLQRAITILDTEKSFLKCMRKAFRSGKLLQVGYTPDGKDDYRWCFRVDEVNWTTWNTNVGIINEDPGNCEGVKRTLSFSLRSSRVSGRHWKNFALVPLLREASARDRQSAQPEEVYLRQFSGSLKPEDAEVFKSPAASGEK

[2] = biological target: T1, Transient receptor potential cation channel subfamily V member 1
Cannabinoid receptor 1 = Cannabinoid receptor 1 (Homo sapiens, UniProt P21554); test: Agonist activity at recombinant human CB1 receptor expressed in HEK293-CNG cells assessed as reduction in forskolin-induced cAMP accumulation incubated for 60 mins by fluorescence based analysis; format: functional, cell-based
Sequence of Cannabinoid receptor 1 (P21554 whole entry): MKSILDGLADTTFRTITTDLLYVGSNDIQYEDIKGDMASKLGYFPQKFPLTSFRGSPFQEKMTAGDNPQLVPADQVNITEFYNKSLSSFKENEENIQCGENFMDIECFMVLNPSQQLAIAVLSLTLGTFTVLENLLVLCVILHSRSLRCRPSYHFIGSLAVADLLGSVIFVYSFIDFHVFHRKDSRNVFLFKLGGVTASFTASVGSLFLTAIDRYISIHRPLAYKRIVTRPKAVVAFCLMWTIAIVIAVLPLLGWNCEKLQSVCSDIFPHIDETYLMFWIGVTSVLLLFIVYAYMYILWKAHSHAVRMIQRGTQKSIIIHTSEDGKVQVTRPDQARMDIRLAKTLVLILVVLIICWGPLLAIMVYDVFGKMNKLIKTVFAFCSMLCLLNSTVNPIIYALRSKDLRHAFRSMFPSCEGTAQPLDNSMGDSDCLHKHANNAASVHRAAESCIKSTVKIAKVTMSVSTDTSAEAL

Cannabinoid receptor 2 [3] = biological target: T2, Cannabinoid receptor 2 (Homo sapiens, UniProt P34972); test: Agonist activity at recombinant human CB2 receptor expressed in HEK293-CNG cells assessed as reduction in forskolin-induced cAMP accumulation incubated for 60 mins by fluorescence based analysis; format: functional, cell-based
T2 sequence (P34972 whole entry): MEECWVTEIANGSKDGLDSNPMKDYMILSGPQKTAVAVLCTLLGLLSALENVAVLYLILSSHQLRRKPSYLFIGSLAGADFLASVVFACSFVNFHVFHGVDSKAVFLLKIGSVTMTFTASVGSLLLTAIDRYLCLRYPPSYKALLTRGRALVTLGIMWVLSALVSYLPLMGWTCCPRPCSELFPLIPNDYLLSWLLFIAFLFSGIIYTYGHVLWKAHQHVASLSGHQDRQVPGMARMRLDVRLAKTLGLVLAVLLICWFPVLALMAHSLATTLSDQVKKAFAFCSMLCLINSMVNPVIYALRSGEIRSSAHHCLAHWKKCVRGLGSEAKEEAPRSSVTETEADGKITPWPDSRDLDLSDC

Cannabinoid receptor 2 [4] = biological target: T2, Cannabinoid receptor 2; test: Antagonist activity at recombinant human CB2 receptor expressed in HEK293-CNG cells assessed as cAMP accumulation incubated for 60 mins in presence of forskolin by fluorescence based analysis; format: functional, cell-based
[5] = Metabolic stability in human skin S9 fraction assessed as parent compound remaining at 5 uM incubated for 60 mins
[6] = Metabolic stability in human HaCaT cells assessed as parent compound remaining at 5 uM incubated for 120 mins
[7] = Metabolic stability in human Fibroblast assessed as parent compound remaining at 5 uM incubated for 120 mins; details: fibroblasts
[8] = Metabolic stability in human Keratinocytes assessed as parent compound remaining at 5 uM incubated for 120 mins
[9] = Metabolic stability in human plasma assessed as parent compound remaining at 50 uM incubated for 60 mins
[10] = Metabolic stability in human liver S9 fraction assessed as parent compound remaining at 5 uM incubated for 60 mins
[11] = biological target: T1, Transient receptor potential cation channel subfamily V member 1; test: Agonist activity at human TRPV1 expressed in HEK293 cells assessed as induction of current by patch clamp assay

| SMILES | pEC50 [1] | pEC50 (Cannabinoid receptor 1) | pEC50 (Cannabinoid receptor 2 [3]) | other results |
| --- | --- | --- | --- | --- |
| C=CCNC(=O)COC(=O)CCCCCCCCCCC | 4.94 |  |  |  |
| C=CCNC(=O)COC(=O)CC/C(C)=C/CC/C(C)=C/CC/C=C(\C)CC/C=C(\C)CCC=C(C)C | 4.44 |  |  |  |
| CCCCCCCCCCCC(=O)OCC(=O)NCCc1cc(O)c(O)cc1I |  |  |  | pIC50 [2]: 4.19 |
| CC(C)=CCC/C(C)=C/C(=O)OCC(=O)NC1CC1 | 4.48 |  |  |  |
| CC(C)=CCC/C(C)=C/CC/C(C)=C/CC/C=C(\C)CC/C=C(\C)CCC(=O)OCC(=O)NC1CC1 | 4.87 | 3.71 |  |  |
| C=CCNC(=O)COC(=O)CCCCCCC/C=C\CCCCCCCC | 5.33 |  |  |  |
| O=C(CO)NCCc1ccc(O)c(O)c1 |  | < 4.00 | < 4.00 |  |
| C=CCNC(=O)COC(=O)CCCCCCC | 4.63 |  |  |  |
| CCCCCC[C@H](C/C=C\CCCCCCCC(=O)OCC(=O)NCCO)OC(=O)Cc1ccccc1 | 5.43 |  |  |  |
| C=CCNC(=O)CO | < 4.00 | < 4.00 | < 4.00 |  |
| C=CCNC(=O)COC(=O)CCCCCCC/C=C\C[C@@H](CCCCCC)OC(=O)Cc1ccccc1 | 4.82 |  |  |  |
| COc1ccc(C(=O)c2c(C)n(CCN3CCOCC3)c3cc(I)ccc23)cc1 |  |  |  | pIC50 (Cannabinoid receptor 2 [4]): 7.52 |
| C=CCNC(=O)COC(=O)CCC/C=C\C/C=C\C/C=C\C/C=C\CCCCC | 4.66 | 4.78 | 4.21 |  |
| CCCCCC[C@H](C/C=C\CCCCCCCC(=O)OCC(=O)NC1CC1)OC(=O)Cc1ccccc1 | 5.59 |  |  |  |
| CCCCC/C=C\C/C=C\C/C=C\C/C=C\CCCC(=O)OCC(=O)NCCc1ccc(O)c(O)c1 | 6.00 |  |  |  |
| O=C(CO)NC1CC1 | < 4.00 | < 4.00 | < 4.00 |  |
| CCCCCCCC(=O)OCC(=O)NCCc1cc(O)c(O)cc1I |  |  | < 4.00 | remaining at 1 h, 5 µM [5]: 27%; pIC50 [2]: 4.27; remaining at 2 h, 5 µM [6]: 73%; remaining at 2 h, 5 µM [7]: 69%; remaining at 2 h, 5 µM [8]: 85%; remaining at 1 h, 50 µM [9]: 13%; remaining at 1 h, 5 µM [10]: 1% |
| CCCCCCCCCCCC(=O)OCC(=O)NC1CC1 | 5.77 |  | 4.06 | remaining at 1 h, 5 µM [5]: 69%; remaining at 2 h, 5 µM [6]: 94%; remaining at 2 h, 5 µM [7]: 62%; remaining at 2 h, 5 µM [8]: 99%; remaining at 1 h, 50 µM [9]: 80%; remaining at 1 h, 5 µM [10]: 1% |
| CCCCCC[C@H](C/C=C\CCCCCCCC(=O)OCC(=O)NCCc1ccc(O)c(O)c1)OC(=O)Cc1ccccc1 | 5.51 |  |  |  |
| CC(C)=CCC/C(C)=C/C(=O)OCC(=O)NCCO | 4.57 |  | 4.42 | remaining at 1 h, 5 µM [5]: 96%; remaining at 2 h, 5 µM [6]: 98%; remaining at 2 h, 5 µM [7]: 93%; remaining at 2 h, 5 µM [8]: 96%; pEC50 [11]: 4.32; remaining at 1 h, 50 µM [9]: 89%; remaining at 1 h, 5 µM [10]: 89% |
| CCCCCCCC/C=C\CCCCCCCC(=O)OCC(=O)NC1CC1 | 6.15 | 4.55 |  |  |
| CC(C)=CCC/C(C)=C/C(=O)OCC(=O)NCCc1ccc(O)c(O)c1 |  | 3.93 | 4.05 |  |
| CCCCC/C=C\C/C=C\C/C=C\C/C=C\CCCC(=O)OCC(=O)NC1CC1 |  | 4.86 |  |  |
| O=C(CO)NCCc1cc(O)c(O)cc1I |  | < 4.00 | < 4.00 | pIC50 [2]: < 4.00 |
| CCCCCC[C@H](C/C=C\CCCCCCCC(=O)OCC(=O)NCCc1cc(O)c(O)cc1I)OC(=O)Cc1ccccc1 |  |  |  | pIC50 [2]: < 4.00 |
| CC(C)=CCC/C(C)=C/C(=O)OCC(=O)NCCc1cc(O)c(O)cc1I |  | 4.38 | 4.43 |  |
| O=C(CO)NCCO | < 4.00 | < 4.00 | < 4.00 |  |
| CCCCCCCC(=O)OCC(=O)NCCc1ccc(O)c(O)c1 | 4.97 | 4.86 |  |  |
| CCCCC/C=C\C/C=C\C/C=C\C/C=C\CCCC(=O)OCC(=O)NCCO | 5.68 | 4.51 |  | remaining at 1 h, 5 µM [5]: 76%; remaining at 2 h, 5 µM [6]: > 99%; remaining at 2 h, 5 µM [7]: 73%; remaining at 2 h, 5 µM [8]: 97%; remaining at 1 h, 50 µM [9]: > 99%; remaining at 1 h, 5 µM [10]: 24% |
